Measurements reported in PMC11277083, “A Natural Bioactive Peptide from Pinctada fucata Pearls Can Be Used as a Potential Inhibitor of the Interaction between SARS-CoV-2 and ACE2 against COVID-19” (International Journal of Molecular Sciences, 2024).
Like-named read-outs stand apart in the source and are kept apart here. Where no end group is shown, it is not given here.

Assays:
ACE2 [1] = conditions: reduces the affinity between spiny proteins and ACE2; cited from earlier work
ACE2 [2] = conditions: compared with KKCH-ACE2 affinity; cited from earlier work
[3] = system: virus S1 protein and the ACE2 receptor; conditions: cited from earlier work
Vero cells = conditions: for survival rate of Vero cells: 2 h
S1-RBD/ACE2 = molecular target: T1, S1-RBD/ACE2 (Homo sapiens, UniProt Q9BYF1); test: ELISA inhibition of S1-RBD binding to ACE2 (RayBio COVID-19 Spike ACE2 binding assay kit II); parameters: species or system SARS-CoV-2 (S1-RBD); conditions: 2 h, room temperature, 450 nm, repeated twice in each group, read-out: inhibitory rate on S1-RBD/ACE2
T1 construct: purchased RayBio (RayBiotech)
Description: The RayBio COVID-19 Spike ACE2 binding assay kit II (no. QHD43416) was used to detect the inhibitory effect of the KKCH peptides on the binding of the RBD protein and the ACE2 receptor protein. Using a PBS solution, KKCH was diluted to 10 μM, 90 μM, 180 μM, 360 μM, 720 μM, and 1440 μM. Then, 125 μL of test reagent was obtained by mixing different concentrations of the 10 μL KKCH peptide solutions with Fc-labeled recombinant S1-RBD protein solution. Next, 100 μL of test reagent was added to each well of a 96-well plate coated with the recombinant ACE2 protein, repeated twice in each group, and incubated at room temperature for 2 h. The plates were washed four times with a wash buffer to remove unbound S1-RBD proteins. Then, 100 μL of enzyme-labeled Anti-IgG was added to each well and incubated for 1 h, 100 μL of TMB was added at room temperature and incubated for 0.5 h, and 50 μL […] the reaction. The yellow intensity was measured at 450 nm, and the inhibition rate of the KKCH peptide was calculated.

HEK293T cells = conditions: for survival rate of HEK293T cells: 2 h
ACE2 protein = molecular target: T2, ACE2 protein (Homo sapiens, UniProt Q9BYF1); test: SPR affinity for ACE2 (Biacore T200, CM5 chip); conditions: ACE2 on CM5 chip, 1:1 Langmuir binding model, read-out: association (Ka)
T2 construct: purchased CUSABIO (Wuhan, China) CSB-MP866317HU
Description: The ACE2 protein (no. CSB-MP866317HU) was a recombinant human protein purchased from CUSABIO (Wuhan, China). […] The ACE2 protein was diluted to 50 μg/mL with sodium acetate at pH 4.0. The protein was fixed on the CM5 chip at a flow rate of 10 μL/min, and the coupling time was 420 s. […] Biacore T200 Control software (v.2.0) was used to collect sample data, and the 1:1 Langmuir binding model was fitted globally to determine the final KD. The binding affinity KD could be calculated from dissociation (Kd)/association (Ka).

SARS-CoV-2 live virus = conditions: 2 h
HEK293T = conditions: 394.10 μM; cited from earlier work

T1 sequence (Q9BYF1 18-740): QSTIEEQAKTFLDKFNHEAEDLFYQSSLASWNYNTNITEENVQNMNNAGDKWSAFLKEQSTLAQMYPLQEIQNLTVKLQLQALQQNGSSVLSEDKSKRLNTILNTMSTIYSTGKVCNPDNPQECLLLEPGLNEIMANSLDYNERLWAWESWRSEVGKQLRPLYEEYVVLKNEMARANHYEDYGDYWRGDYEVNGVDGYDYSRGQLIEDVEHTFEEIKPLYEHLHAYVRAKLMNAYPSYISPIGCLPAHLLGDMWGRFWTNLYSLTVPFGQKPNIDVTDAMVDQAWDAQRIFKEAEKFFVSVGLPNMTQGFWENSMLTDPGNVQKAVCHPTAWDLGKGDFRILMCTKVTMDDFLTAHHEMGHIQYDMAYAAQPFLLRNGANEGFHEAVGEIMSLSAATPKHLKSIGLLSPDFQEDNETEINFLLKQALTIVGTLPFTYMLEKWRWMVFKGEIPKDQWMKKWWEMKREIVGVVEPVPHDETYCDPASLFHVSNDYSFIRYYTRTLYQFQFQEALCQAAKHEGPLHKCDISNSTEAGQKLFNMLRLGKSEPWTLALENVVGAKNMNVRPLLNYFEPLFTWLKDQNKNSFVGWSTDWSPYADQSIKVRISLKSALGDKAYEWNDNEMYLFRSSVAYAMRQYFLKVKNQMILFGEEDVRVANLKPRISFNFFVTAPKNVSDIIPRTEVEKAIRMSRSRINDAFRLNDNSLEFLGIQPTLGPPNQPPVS
T2 sequence (Q9BYF1 18-805): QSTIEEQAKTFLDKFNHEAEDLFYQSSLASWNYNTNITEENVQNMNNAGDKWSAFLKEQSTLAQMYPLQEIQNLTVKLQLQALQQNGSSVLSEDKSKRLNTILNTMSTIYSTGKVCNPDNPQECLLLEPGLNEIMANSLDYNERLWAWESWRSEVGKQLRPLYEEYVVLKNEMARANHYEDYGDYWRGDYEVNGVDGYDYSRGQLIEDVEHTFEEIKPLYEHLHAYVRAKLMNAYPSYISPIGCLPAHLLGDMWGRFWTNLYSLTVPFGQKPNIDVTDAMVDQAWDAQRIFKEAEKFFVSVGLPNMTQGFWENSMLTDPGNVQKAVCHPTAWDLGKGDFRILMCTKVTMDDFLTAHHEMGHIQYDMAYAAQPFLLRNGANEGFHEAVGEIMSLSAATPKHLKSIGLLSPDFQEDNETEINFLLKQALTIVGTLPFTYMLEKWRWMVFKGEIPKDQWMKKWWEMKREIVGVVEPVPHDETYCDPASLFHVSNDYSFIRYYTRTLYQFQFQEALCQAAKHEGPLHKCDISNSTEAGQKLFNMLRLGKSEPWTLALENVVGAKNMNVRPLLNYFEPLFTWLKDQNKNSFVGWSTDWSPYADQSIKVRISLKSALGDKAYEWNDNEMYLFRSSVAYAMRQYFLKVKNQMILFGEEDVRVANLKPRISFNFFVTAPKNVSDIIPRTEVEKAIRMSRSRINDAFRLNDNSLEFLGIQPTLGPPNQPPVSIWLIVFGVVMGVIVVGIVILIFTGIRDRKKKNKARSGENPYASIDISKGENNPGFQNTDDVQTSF

CCN(CC)CCCC(C)Nc1ccnc2cc(Cl)ccc12 (stereo not shown) [chloroquine]
effect on ACE2 (ACE2 [1]): can prevent the glycosylation of ACE2

C[C@@]1(C(=O)O)CC[C@]2(C)CC[C@]3(C)C4=CC(=O)c5c(cc(O)c(O)c5C=O)[C@]4(C)CC[C@@]3(C)[C@@H]2C1 [demethylzeylasteral]
Kd (ACE2 [2]): 1.74 µM

C[C@@H]1C[C@H]2[C@@H]3CCC4=CC(=O)C=C[C@]4(C)[C@@]3(F)[C@@H](O)C[C@]2(C)[C@@]1(O)C(=O)CO [dexamethasone]
Kd (ACE2 [2]): 9.03 µM

O=c1c(-c2ccc(O)cc2)coc2c([C@@H]3O[C@H](CO)[C@@H](O)[C@H](O)[C@H]3O)c(O)ccc12 [puerarin]
Kd (ACE2 [2]): 670 µM | reduction of RU values of S1 protein and ACE2 [3]: 20 units

KKCHFWPFPW [KKCH]
toxicity to Vero cells (significance) (Vero cells; 40 to 400 µM, p > 0.05 vs control): not toxic to the cells in this range | survival rate of Vero cells (Vero cells; 40 μM): 97.81% | survival rate of Vero cells (Vero cells; 80 μM): 96.97% | survival rate of Vero cells (Vero cells; 160 μM): 98.23% | survival rate of Vero cells (Vero cells; 240 μM): 96.21% | survival rate of Vero cells (Vero cells; 320 μM): 95.85% | survival rate of Vero cells (Vero cells; 400 μM): 92.64% | survival rate of Vero cells (Vero cells; 480 μM): 90.44% | inhibition at 10 µM (S1-RBD/ACE2; 10 μM): 6.8% | inhibition at 90 µM (S1-RBD/ACE2; 90 μM): 10.9% | inhibition at 180 µM (S1-RBD/ACE2; 180 μM): 17% | inhibition at 360 µM (S1-RBD/ACE2; 360 μM): 34% | inhibition at 720 µM (S1-RBD/ACE2; 720 μM): 89.7% | inhibition at 1440 µM (S1-RBD/ACE2; 1440 μM): 94.1% | survival rate of HEK293T cells (HEK293T cells; 40 μM): 98.28% | survival rate of HEK293T cells (HEK293T cells; 80 μM): 95.28% | survival rate of HEK293T cells (HEK293T cells; 160 μM): 94.74% | survival rate of HEK293T cells (HEK293T cells; 240 μM): 92.39% | survival rate of HEK293T cells (HEK293T cells; 320 μM): 90.77% | survival rate of HEK293T cells (HEK293T cells; 400 μM): 92.69% | survival rate of HEK293T cells (HEK293T cells; 480 μM): 81.66% | effect on HEK293T cell viability (significance) (HEK293T cells; less than 480 μM, p > 0.05): no significant effect on cell viability | kon (ACE2 protein): 154000 ± 1.5e+09 M⁻¹ s⁻¹ | inhibitory rate against SARS-CoV-2 (SARS-CoV-2 live virus; 10 μM): 4.97% | inhibitory rate against SARS-CoV-2 (SARS-CoV-2 live virus; 25 μM): 11.32% | inhibitory rate against SARS-CoV-2 (SARS-CoV-2 live virus; 50 μM): 15.40% | inhibitory rate against SARS-CoV-2 (SARS-CoV-2 live virus; 100 μM): 17.91% | inhibitory rate against SARS-CoV-2 (SARS-CoV-2 live virus; 150 μM): 22.41% | inhibitory rate against SARS-CoV-2 (SARS-CoV-2 live virus; 200 μM): 32.01% | inhibitory rate against SARS-CoV-2 (SARS-CoV-2 live virus; 350 μM): 38.31% | inhibitory rate against SARS-CoV-2 (SARS-CoV-2 live virus; 450 μM): 54.80% | viability rate of BEAS-2B cells (BEAS-2B cells; 40 µM): 99.80% | viability rate of BEAS-2B cells (BEAS-2B cells; 80 µM): 99.77% | viability rate of BEAS-2B cells (BEAS-2B cells; 160 µM): 99.37% | viability rate of BEAS-2B cells (BEAS-2B cells; 240 µM): 99.63% | viability rate of BEAS-2B cells (BEAS-2B cells; 320 µM): 98.07% | viability rate of BEAS-2B cells (BEAS-2B cells; 400 µM): 95.87% | viability rate of BEAS-2B cells (BEAS-2B cells; 480 µM): 82.95% | effect on BEAS-2B cell viability (significance) (BEAS-2B cells; less than 480 μM, p > 0.05): no significant effect on cell viability

thanatin: peptide (thanatin) derived from insects
cytotoxicity to HEK293T (HEK293T): no obvious cytotoxicity

tuftsin
Kd (ACE2 [2]): 460 µM
